From US20110009332A1, “Therapeutic Treatment Of Wounds” (SOUTHWEST RESEARCH INSTITUTE, priority 2009, published 2011)
Where a SMILES comes first, the peptide text is derived from it. The star is where a group is joined. Cbz = O=C(OCc1ccccc1)*; OtBu = CC(C)(C)O*

Test system: BMP-2
Test: BMP-2 gene expression (qPCR, normalized over 18S) in human dermal fibroblasts
Format: cell-based
Procedure: An examination of gene expression of BMP-2 was conducted using a number of proteasome inhibitors including, proteasome inhibitor-1, curcumin, MG-132 and bortezomib. Human neonatal dermal fibroblasts (AllCells, Catalog No. HN006001) were maintained in Dulbecco's modified Eagle's medium (DMEM) supplemented with 10% fetal bovine serum. Early passage cells were plated at 2×10^4 cells/cm^2 and grown in humidified 5% CO2 at 37° C. for 24 hours. Spent media was replaced the following day with assay media including Proteasome inhibitor-1 was added in DMEM at 1 μM and 0.1 μM. Untreated cells were used as the control group. For the human osteogenesis PCR array, the experimental group was treated only at 1 μM.
Phenol-chloroform extraction was performed to isolate the total RNA for real time polymerase chain reaction array. More specifically, the total RNA was prepared using TRI REAGENT (Ambion, product number 9738), wherein the total RNA was obtained from the human neonatal dermal fibroblasts. Note that isolation was performed as per the instructions provided with the TRI REAGENT. The RNA was used for subsequent quantitative polymerase chain reaction (qPRC) gene expression of BMP-2 measured using hydrolysis probes (TAQMAN probes available from Applied Biosystems) as described further below.
Concentration and integrity of the obtained total RNA was assessed by absorbance in a spectrophotometer at 260 nm and 280 nm and by electrophoresis in 1% agarose with formaldehyde loading dye. For TAQMAN gene expression assays, cDNA was synthesized from 2 μg of total RNA using the High Capacity cDNA Reverse Transcription Kit (Applied Biosystems, product number 4368814), again following the protocol supplied with the kit. The resulting cDNA was diluted 1:10.
For TAQMAN gene expression, gene-specific fluorescent labeled TAQMAN primers for FAM-BMP2 (Applied Biosystems, product number Hs00154192.m1) and TAQMAN reference VIC-18S ribosomal RNA (Applied Biosystems, product number 4310893E) were used to target the gene of interest. A cocktail of universal master mix (Applied Biosystems, product number 4369016) was prepared individually for both set of primers which contained Taq Polymerase, dNTPs, and buffer. Template cDNA's were added separately to respective individual wells in triplicate samples. PCR was performed on StepOne Plus Real Time System instrument (Applied Biosystems). The amplification program consisted of 1 cycle of 95° C. with 10 minute hold (hot start) followed by 50 cycles of 95° C. with 15 second annealing hold and 1 minute 60° C. specified acquisition hold.
For human osteogenisis PCR array, total RNA was prepared using silica matrix purification using RNEASY MINI KIT (Qiagen, product number 74101) according to the manufacturer's recommendations. cDNA was synthesized from 1 μg of purified DNA-free RNA accordingly to RT^2First Strand Kit (SABiosciences, C-03). The resulting cDNA was diluted 1:30 and amplified. The procedure for the PCR array using real-time PCR is based on the RT^2 Profiler PCR array system instructions for Human Osteogenesis (SABiosciences, product number PAHS-026C). A cocktail reaction mix was setup as recommended by the PCR manufacturer (SABiosceiences, product number PA-012). PCR was performed using the same temperature parameters as used with the StepOne Plus Real Time System instrument. The Ct value of endogenous reference gene (i.e. 18s) was used to control for input RNA and then used to normalize target gene (i.e. BMP-2) tested from the same cDNA sample (Δ Ct), and then calibrated to an internal reference sample (ΔΔCt). Change in gene expression was determined by the expression 2̂-(ΔΔCt).
In addition, as alluded to above a similar methodology using 10 μmM and 100 μM of curcumin, 0.1 μM and 1 μM of bortezomib, and 0.1 μM and 1 μM of MG-132 proteasome inhibitors was performed.

[1] = 0.1 μM inhibitor, FIG. 24, non-treated approximately 1.50
[2] = 1 μM inhibitor, FIG. 24, non-treated approximately 1.50

Row | Structure (SMILES) | BMP-2/18S mRNA levels [1] [a.u.] | BMP-2/18S mRNA levels [2] | other results
1 | CC(C)C[C@@H](C=O)NC(=O)[C@H](CC(C)C)NC(=O)[C@H](CC(C)C)NC(=O)OCc1ccccc1 [MG132] (Cbz-Leu-Leu-Leu-aldehyde) | 5.95 | approximately 9.51 a.u. | 
2 | CC[C@H](C)[C@H](NC(=O)OCc1ccccc1)C(=O)N[C@@H](CCC(=O)OC(C)(C)C)C(=O)N[C@@H](C)C(=O)N[C@H](C=O)CC(C)C [PS-1, Z-Ile-Glu(OBu^t)-Ala-Leu-H] (Cbz-IE(OtBu)AL-aldehyde) |  |  | BMP-2/18S mRNA levels (0.1 μm PS-1, FIG. 22, non-treated control approximately 1.38): 9.01 au; BMP-2/18S mRNA levels (1.0 μm PS-1, FIG. 22, non-treated control approximately 1.38): 12.5 au
3 | CC(C)C[C@H](NC(=O)[C@H](Cc1ccccc1)NC(=O)c1cnccn1)B(O)O [bortezomib] | 6.55 | 9.68 a.u. | 
4 | COc1cc(/C=C/C(=O)CC(=O)/C=C/c2ccc(O)c(OC)c2)ccc1O [curcumin] |  |  | BMP-2/18S mRNA levels (10 μM curcumin, FIG. 23, non-treated approximately 1.38): 2.87 a.u.; BMP-2/18S mRNA levels (100 μM curcumin, FIG. 23, non-treated approximately 1.38): 0.903 a.u.
